Assay results: patent US7169808B2, “Compounds useful for the preparation of medicaments with phosphodiesterase IV inhibitory activity” (Sigma-Tau Industrie Farmaceutiche Riunite S.p.A., priority 2000, dated 2007)

Legend:
[1] = target: T1, Rolipram receptor (H)PDE4; experiment: competition at the rolipram receptor; assay type: binding, Mouse; details: origin Mouse brain
T1 construct: IC50(μM) Rolipram receptor (H)PDE4; other: origin Mouse brain
Description: (§1) The following determination of IC50 for inhibition of PDE IV activity and competition at the rolipram receptor, conducted with standard processes, e.g. as described by Duplantier A. J. et al., J. Med. Chem. 39: 120, 1996 and by Thorphy T. J. et al., J Pharmacol. Exp. Ther., 263: 1195, 1992 have yielded the following results for compounds figuring among the examples envisaged within the framework of the invention described herein
(§2) N.C. means value not calculable because of no inhibition at the highest test concentration, however it means low affinity for rolipram receptor.

[2] = test system: Rolipram receptor (H)PDE4; experiment: competition at the rolipram receptor; assay type: binding, Mouse; details: ratio IC50 (H)PDE4 / IC50 (L)PDE4
Description: as §1, §2

[3] = test system: PDE IV; experiment: PDE IV inhibition at a single concentration; assay type: biochemical; details: human; concentration 100 μM
Description: Assays conducted with standard procedures, e.g. as described by Cortij et al., Br. J. Pharmacol. 108:562, 1993 or Nicholsen CD et al., Trends Pharmacol. Sci. 12:19, 1991 have yielded the following results for compounds figuring among the examples envisaged within the framework of the invention described herein.

[4] = test system: PDE4 Activity (L)PDE4; experiment: IC50 for inhibition of PDE IV activity; assay type: biochemical; details: origin Human
Description: as §1

[5] = test system: PDE1; experiment: PDE selectivity, PDE1; assay type: biochemical, bovine
Description: (§3) These assays have yielded the following results for compounds figuring among the examples envisaged within the framework of the invention described herein.

[6] = test system: PDE3; experiment: PDE selectivity, PDE3; assay type: biochemical, human
Description: as §3

[7] = target: PDE2 (Homo sapiens, UniProt O00408); experiment: PDE selectivity, PDE2; assay type: biochemical
Sequence of PDE2 (O00408 whole entry): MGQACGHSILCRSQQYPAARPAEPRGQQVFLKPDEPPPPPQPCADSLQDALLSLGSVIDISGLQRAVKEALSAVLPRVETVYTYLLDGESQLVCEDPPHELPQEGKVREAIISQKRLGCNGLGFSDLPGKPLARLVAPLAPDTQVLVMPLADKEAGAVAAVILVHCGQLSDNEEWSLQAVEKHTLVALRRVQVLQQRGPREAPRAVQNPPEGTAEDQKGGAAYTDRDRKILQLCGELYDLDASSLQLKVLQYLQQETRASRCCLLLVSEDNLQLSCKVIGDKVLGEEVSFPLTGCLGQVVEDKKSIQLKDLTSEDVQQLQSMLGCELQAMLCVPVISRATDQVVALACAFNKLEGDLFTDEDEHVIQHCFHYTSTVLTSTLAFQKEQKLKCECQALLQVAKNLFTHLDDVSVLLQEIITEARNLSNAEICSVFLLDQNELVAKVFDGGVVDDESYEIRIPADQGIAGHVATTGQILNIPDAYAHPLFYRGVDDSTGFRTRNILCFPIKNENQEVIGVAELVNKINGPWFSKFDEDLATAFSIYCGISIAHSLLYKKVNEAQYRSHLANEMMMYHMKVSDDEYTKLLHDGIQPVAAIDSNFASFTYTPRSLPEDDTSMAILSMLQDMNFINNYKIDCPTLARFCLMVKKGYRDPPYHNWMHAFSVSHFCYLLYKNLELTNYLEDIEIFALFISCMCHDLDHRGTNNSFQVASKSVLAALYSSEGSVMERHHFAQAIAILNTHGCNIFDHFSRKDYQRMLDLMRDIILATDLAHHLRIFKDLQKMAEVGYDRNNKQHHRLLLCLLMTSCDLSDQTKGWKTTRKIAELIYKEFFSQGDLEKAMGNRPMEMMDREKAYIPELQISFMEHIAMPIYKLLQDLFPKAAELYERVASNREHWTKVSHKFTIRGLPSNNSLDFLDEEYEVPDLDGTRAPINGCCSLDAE
Description: as §3

[8] = target: PDE5 (Homo sapiens, UniProt O76074); experiment: PDE selectivity, PDE5; assay type: biochemical
Description: as §3

[9] = test system: PDE4; experiment: PDE selectivity, PDE4; assay type: biochemical, human
Description: as §3

[10] = test system: PDE6; experiment: PDE selectivity, PDE6; assay type: biochemical, bovine
Description: as §3

Row | Structure (SMILES) | IC50 [1] | H/L [2] | % inhibition [3] | IC50 [4] | also measured
1 | COC(=O)C(CC(=O)NO)Cc1ccc(OC)c(OC2CCCC2)c1 (racemic) [ST 1505, (R,S)-3-methoxycarbonyl-4-(3-cyclopentyloxy-4-methoxyphenyl)butane-hydroxamic acid] | 3.5 µM | 0.74 | 86% | 4.7 µM | –
2 | COC(=O)/C(=C/c1ccc(OC)c(OC2CCCC2)c1)CC(=O)O [ST 1503, (3E)-4-[3-(cyclopentyloxy)-4-methoxyphenyl]-3-(methoxycarbonyl)-3-butenoic acid] | – | – | – | 6.2 µM | –
3 | COC(=O)C(CC(=O)O)Cc1ccc(OC)c(OC2CCCC2)c1 (centres unmarked) [ST 1504] | > 10 µM | >1.15 | 84% | 8.7 µM | –
4 | COc1ccc(C(=O)CCC(=O)O)cc1OC1CCCC1 [ST 1689, 4-[3-(cyclopentyloxy)-4-methoxyphenyl]-4-oxo-butanoic acid] | – | – | – | – | melting point: 111 to 113 °C
5 | COC(=O)/C(=C/c1ccc(OC)c(OC2CCCC2)c1)CC(=O)NO [ST 1701, methyl (2E)-3-[3-(cyclopentyloxy)-4-methoxyphenyl]-2-[2-(hydroxyamino)-2-oxoethyl]-2-propenoate] | 0.615 µM | 0.51 | 88% | 1.2 µM | % PDE inhibition at 100 μM PDE1 (bovine) [5]: 42%; % PDE inhibition at 100 μM PDE3 (human) [6]: 52%; inhibition at 100 µM [7]: 16%; inhibition at 100 µM [8]: 30%; % PDE inhibition at 100 μM PDE4 (human) [9]: 94%; % PDE inhibition at 100 μM PDE6 (bovine) [10]: 58%
6 | COC(=O)C/C(=C\c1ccc(OC)c(OC2CCCC2)c1)C(=O)OC [ST 1945, methyl (3E)-3-methoxycarbonyl-4-(3-cyclopentoxy-4-methoxyphenyl)-3-butenoate] | 0.571 µM | 0.33 | – | 0.19 µM | –
7 | COC(=O)/C(=C/c1ccc(OC)c(OC2CCCC2)c1)CCC(=O)O [ST 1977, (4E)-5-[3-(ciclopentyloxy)-4-methoxyphenyl]-4-(methoxycarbonyl)-4-pentenoic acid] | 9.27 µM | 7.13 | – | 1.3 µM | –
